Results taken from US9139578B2 (BRISTOL-MYERS SQUIBB COMPANY, priority 2012, dated 2015).

Target: endothelial lipase (EL) (Homo sapiens (Human), UniProt Q9Y5X9)
Test: Endothelial lipase (EL) enzymatic assay with fluorescent substrate A10070 in DMPG vesicles
Type: biochemical
Details: conditioned media from HT-1080 cells overexpressing endogenous EL; 20 min preincubation at 37° C.
Method: Endothelial lipase activity was measured using a fluorescent substrate, A10070, (Invitrogen, CA) doped into an artificial vesicle containing DMPG (Avanti Polar Lipids) as the excipient. Vesicles were prepared by combining 285 μL, of 1 mM DMPG in a 1:1 mixture of MeOH and CHCl3 with 15 μL, of 1 mM A10070 in a 1:1 mixture of MeOH and CHCl3. The mixture was dried under nitrogen and resuspended in 150 μL, of 50 mM HEPES pH 8.0 buffer containing 100 mM NaCl and 0.2 mM EDTA. The sample was allowed to sit at rt for 15 min and then was sonicated 3×4 mins on ice with a Branson Sonicator using duty cycle 1. This preparation provides vesicles with a mole fraction of 0.05 for the FRET substrate.
The enzymatic assay was measured using white, opaque 96-well half area plates. Each well contained 60 μL, of assay buffer (50 mM HEPES pH 8.0, 50 mM NaCl and 1 mM CaCl2) and 2 ul of a DMSO solution containing compound of interest. Conditioned media obtained from HT-1080 cells, which were transformed by RAGE technology (Athersys) to overexpress endogenous EL, was added and the reaction was allowed to incubate for 20 min at 37° C. with gentle agitation. The reaction was started by the addition of 20 μL, of a 1:4 dilution of vesicles. The final total reaction volume was 100 μL. The reaction rates were measured on a Gemini plate reader with an excitation wavelength of 488 nm and an emission of 530 nm. Readings were taken every 20 seconds for 10 min with agitation between each reading. The slope of the linear portion of the readout was used to calculate the rate of the reaction.

Sequence of endothelial lipase (EL) (Q9Y5X9 21-500): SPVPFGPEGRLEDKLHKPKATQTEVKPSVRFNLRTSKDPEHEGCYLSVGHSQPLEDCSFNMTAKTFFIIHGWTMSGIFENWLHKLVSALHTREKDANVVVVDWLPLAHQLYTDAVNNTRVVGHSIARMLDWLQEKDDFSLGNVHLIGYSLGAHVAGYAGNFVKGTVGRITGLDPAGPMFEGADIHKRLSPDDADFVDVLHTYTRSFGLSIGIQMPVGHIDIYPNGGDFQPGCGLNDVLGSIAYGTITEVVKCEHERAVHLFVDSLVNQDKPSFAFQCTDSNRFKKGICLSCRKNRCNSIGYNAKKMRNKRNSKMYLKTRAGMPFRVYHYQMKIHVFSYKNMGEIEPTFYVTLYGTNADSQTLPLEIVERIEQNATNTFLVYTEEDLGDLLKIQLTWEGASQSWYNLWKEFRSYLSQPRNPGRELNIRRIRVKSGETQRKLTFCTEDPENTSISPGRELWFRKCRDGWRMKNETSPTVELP

Row | SMILES | IC50 [nM]
1 | O=C1NC(=O)C(Cc2nnc(C(NC(=O)c3ccc(C(F)(F)F)cc3)c3nc4ccc(-c5ccc(F)nc5)cc4s3)o2)S1 (centres unmarked) [Example 1, N-((5-((2,4-dioxothiazolidin-5-yl)methyl)-1,3,4-oxadiazol-2-yl)(6-(6-fluoropyridin-3-yl)benzo[d]thiazol-2-yl)methyl)-4-(trifluoromethyl)benzamide] | < 10
2 | NS(=O)(=O)NCc1nnc(C(NC(=O)c2ccc(C(F)(F)F)cc2)c2nc3ccc(-c4ccc(F)nc4)cc3s2)o1 (centres unmarked) [Example 2, N-((6-(6-fluoropyridin-3-yl)benzo[d]-thiazol-2-yl)(5-((sulfamoyl-amino)-methyl)-1,3,4-oxadiazol-2-yl)methyl)-4-(trifluoro-methyl)-benzamide] | < 10
3 | NS(=O)(=O)NCc1nnc(C(NC(=O)c2cccnc2)c2nc3ccc(-c4ccc(F)nc4)cc3s2)o1 (centres unmarked) [Example 3, N-((6-(6-fluoropyridin-3-yl)benzo[d]-thiazol-2-yl)(5-((sulfamoyl-amino)-methyl)-1,3,4-oxadiazol-2-yl)methyl)-nicotinamide] | < 10
4 | NS(=O)(=O)NCc1nnc(C(NC(=O)NCc2ccccc2)c2nc3ccc(-c4ccc(F)nc4)cc3s2)o1 (centres unmarked) [Example 4, 1-benzyl-3-((6-(6-fluoro-3-pyridinyl)-1,3-benzothiazol-2-yl)(5-((sulfamoyl-amino)-methyl)-1,3,4-oxadiazol-2-yl)methyl)urea] | < 10
5 | CCC(=O)NC(c1nnc(CNS(N)(=O)=O)o1)c1nc2ccc(-c3ccc(F)nc3)cc2s1 (centres unmarked) [Example 5, N-((6-(6-fluoropyridin-3-yl)benzo[d]-thiazol-2-yl)(5-M-((sulfamoyl-amino)-methyl)-1,3,4-oxadiazol-2-yl)methyl)-propionamide] | < 10
6 | CCOC(=O)CNC(=O)NC(c1nnc(CNS(N)(=O)=O)o1)c1nc2ccc(-c3ccc(F)nc3)cc2s1 (centres unmarked) [Example 6, ethyl 2-(3-((6-(6-fluoropyridin-3-yl)benzo[d]-thiazol-2-yl)(5-((sulfamoyl-amino)-methyl)-1,3,4-oxadiazol-2-yl)methyl)-ureido)acetate] | < 10
7 | NS(=O)(=O)NCc1nnc(C(NC(=O)Nc2ccc(F)cc2)c2nc3ccc(-c4ccc(F)nc4)cc3s2)o1 (centres unmarked) [Example 7, 1-(4-fluoro-phenyl)-3-((6-(6-fluoro-3-pyridinyl)-1,3-benzothiazol-2-yl)(5-((sulfamoyl-amino)-methyl)-1,3,4-oxadiazol-2-yl)methyl)urea] | < 10
8 | Cc1noc(C)c1NC(=O)NC(c1nnc(CNS(N)(=O)=O)o1)c1nc2ccc(-c3ccc(F)nc3)cc2s1 (centres unmarked) [Example 8, 1-(3,5-dimethyl-4-isoxazolyl)-3-((6-(6-fluoro-3-pyridinyl)-1,3-benzothiazol-2-yl)(5-((sulfamoyl-amino)-methyl)1,3,4-oxadiazol-2-yl)methyl)urea] | < 10
9 | CC(=O)NC(c1nnc(CC2SC(=O)NC2=O)o1)c1nc2ccc(-c3ccc(F)nc3)cc2s1 (centres unmarked) [Example 9, N-((5-((2,4-dioxo-thiazolidin-5-yl)methyl)-1,3,4-oxadiazol-2-yl)-(6-(6-fluoropyridin-3-yl)benzo[d]-thiazol-2-yl)-methyl)-acetamide] | < 10
10 | CC(=O)NC(c1nnc(CNS(N)(=O)=O)o1)c1nc2ccc(-c3ccc(F)nc3)cc2s1 (centres unmarked) [Example 10, N-((6-(6-fluoropyridin-3-yl)benzo[d]-thiazol-2-yl)(5-((sulfamoyl-amino)-methyl)-1,3,4-oxadiazol-2-yl)methyl)-acetamide] | < 10
11 | CC(=O)NC(c1nnc(CC2SC(=O)NC2=O)o1)c1nc2ccc(-c3ccnn3C)cc2s1 (centres unmarked) [Example 11, N-((5-((2,4-dioxo-thiazolidin-5-yl)methyl)-1,3,4-oxadiazol-2-yl)(6-(1-methyl-1H-pyrazol-5-yl)benzo[d]-thiazol-2-yl)methyl)-acetamide] | < 10
12 | CC(=O)NC(c1nnc(CNS(N)(=O)=O)o1)c1nc2ccc(-c3ccccc3)cc2s1 (centres unmarked) [Example 12, N-((6-phenylbenzo[d]thiazol-2-yl)(5-((sulfamoylamino)methyl)-1,3,4-oxadiazol-2-yl)methyl)acetamide] | < 10
13 | CC(C)C(=O)NC(c1nnc(CNS(N)(=O)=O)o1)c1nc2ccc(-c3ccccc3)cc2s1 (centres unmarked) [Example 13, N-((6-phenylbenzo[d]-thiazol-2-yl)(5-((sulfamoylamino)-methyl)-1,3,4-oxadiazol-2-yl)methyl)-isobutyramide] | < 10
14 | CC(C)NC(=O)NC(c1nnc(CNS(N)(=O)=O)o1)c1nc2ccc(-c3ccccc3)cc2s1 (centres unmarked) [Example 15, 1-isopropyl-3-((6-phenyl-1,3-benzothiazol-2-yl)(5-((sulfamoylamino)-methyl)-1,3,4-oxadiazol-2-yl)methyl)urea] | < 10
15 | NS(=O)(=O)NCc1nnc(C(NC(=O)c2ccc(C(F)(F)F)cc2)c2nc3ccc(-c4ccccc4)cc3s2)o1 (centres unmarked) [Example 16, N-((6-phenylbenzo[d]-thiazol-2-yl)(5-((sulfamoylamino)-methyl)-1,3,4-oxadiazol-2-yl)methyl)-4-(trifluoromethyl)-benzamide] | < 10
16 | CC(=O)NC(c1nnc(CNC(=O)OC(C)(C)C)o1)c1nc2ccc(-c3ccccc3)cc2s1 (centres unmarked) [Example 17, tert-butyl ((5-(acetamido(6-phenylbenzo[d]-thiazol-2-yl)methyl)-1,3,4-oxadiazol-2-yl)methyl)-carbamate] | < 10
17 | O=C(NC(c1nnc(CS(=O)(=O)O)o1)c1nc2ccc(-c3ccccc3)cc2s1)C1CC1 (centres unmarked) [Example 18, (5-(cyclopropane-carboxamido-(6-phenylbenzo[d]-thiazol-2-yl)methyl)-1,3,4-oxadiazol-2-yl)methanesulfonic acid] | < 10
18 | O=C1NC(=O)C(Cc2nnc(C(NC(=O)C3CC3)c3nc4c(F)cc(-c5ccccc5)cc4s3)o2)S1 (centres unmarked) [Example 21] | < 10
19 | O=C1NC(=O)C(Cc2nnc(C(NC(=O)c3ccc(C(F)(F)F)cc3)c3nc4c(F)cc(-c5ccccc5)cc4s3)o2)S1 (centres unmarked) [Example 22] | < 10
20 | CC(=O)NC(c1nnc(CC2(C)NC(=O)NC2=O)o1)c1nc2ccc(-c3ccc(C(=O)N4CCOCC4)cc3)cc2s1 (centres unmarked) [Example 23, N-((5-((4-methyl-2,5-dioxoimidazolidin-4-yl)methyl)-1,3,4-oxadiazol-2-yl)(6-(4-(morpholine-4-carbonyl)phenyl)benzo[d]thiazol-2-yl)methyl)acetamide] | 131
21 | COc1nc(-c2nnc(C(NC(C)=O)c3nc4ccc(-c5ccccc5)cc4s3)o2)c(O)c(=O)[nH]1 (centres unmarked) [Example 24, N-((5-(5-hydroxy-2-methoxy-6-oxo-1,6-dihydropyrimidin-4-yl)-1,3,4-oxadiazol-2-yl)(6-phenylbenzo[d]thiazol-2-yl)methyl)acetamide] | 25
22 | CC(=O)NC(c1nnc(C2CNC2)o1)c1nc2ccc(-c3ccccc3)cc2s1 (centres unmarked) [Example 25, N-((5-(azetidin-3-yl)-1,3,4-oxadiazol-2-yl)(6-phenylbenzo[d]thiazol-2-yl)methyl)acetamide] | 277
23 | CC(=O)NC(c1nnc(C2CN(CC(C)(C)C)C2)o1)c1nc2ccc(-c3ccccc3)cc2s1 (centres unmarked) [Example 26, N-((5-(1-neopentylazetidin-3-yl)-1,3,4-oxadiazol-2-yl)(6-phenylbenzo[d]thiazol-2-yl)methyl)acetamide] | 17
